Measurements published in US12653899B2, “Multi-targeted, tunable, sustained delivery of payloads to charged avascular tissues” (Massachusetts Institute of Technology, priority 2019, dated 2026).

How the values were obtained:
[1] = tested on: human ankle cartilage explants; assay: Aggrecan/sGAG biosynthesis rate (35S-sulfate incorporation) in human ankle cartilage explants; assay type: cell-based; settings: for biosynthesis rate of explants compared to the untreated control: single 39.2 nM dose (equivalent to 300 ng/ml free IGF-1), FIGS. 19A-19B; for sGAG biosynthesis rate: single 500 nM, 1 μM and 2 μM doses, Day 0 to Day 3, both ankle and knee cartilage; for elevated biosynthesis rate after single dose, up to Day 7 / elevated biosynthesis rate after single dose, up to Day 15: single dose not replenished during media changes, FIG. 12 (ankle and knee)
Method: (§1) Cartilage was harvested from both ankles of a donor (Collins Grade 0). Cartilage explants were equilibrated in culture media for 3 days after harvest. […] These were cut down to 1 mm thickness and allowed to equilibrate for a further 2.5 days before experiments were set up. A dose response experiment and an uptake experiment were set up in parallel.
Subsets of the experiment were terminated at 3 days and 7 days from the start of the experiment. Media changes were performed every 2 to 3 days. 3 doses of free +9 GFP were included as additional controls, which tests whether high doses of the drug delivery carrier has adverse effects on aggrecan biosynthesis rate.
For the 3-day termination experiment, chondrocyte biosynthesis rate (primarily aggrecan synthesis) was measured between days 0 and 3 of the experiment using a 35S-sulfate radiolabel. For the 7-day experiment, this measurement was done between days 5 and 7. Statistics: 1-way ANOVA with post-hoc Tukey's HSD test.
as §1, with “the ankle” for “both ankles”, “1).” for “0).”, “2” for “3”, “A 7-day” for “A”, “was” for “and an uptake experiment were”, “up.” for “up in parallel.”
Chondrocyte biosynthesis rate (primarily aggrecan synthesis) was measured between days 5 and 7 of the experiment using a 35S-sulfate radiolabel. Statistics: 1-way ANOVA with post-hoc Tukey's HSD test.
Cartilage explants that were equilibrated in culture medium post-harvest were transferred to ultra-low attachment cell culture plates (Corning) for dose response experiments. All experiments were carried out in low glucose, serum free medium (same composition as equilibration medium). Previous studies studying the effects of IGF-1 on cartilage explants have used doses ranging from 10 ng/ml to 300 ng/ml. Based on these, 300 ng/ml (equivalent to 39.2 nM) of free recombinant human IGF-1 (PeproTech, Rocky Hill, NJ) was used as the positive control.
Since each fusion protein had one IGF-1 domain, equivalent doses (39.2 nM) of these were tested. In addition to this, 500 nM, 1 μM and 2 μM doses of fusion proteins were also tested. In all cases, only a single dose of the fusion proteins was added at the start of the experiment, and media changes were carried out without fusion proteins once every 2 to 3 days thereafter. In contrast, continuous doses of free IGF-1 were used for the positive control. An untreated control group was also included in the experiments. Experiments were terminated at 3-day, 7-day and 15-day time points. Outcome measures included the biosynthesis rate of sulfated glycosaminoglycans (sGAG), explant metabolic rate, sGAG loss to the culture medium and the explant sGAG content at the end of the experiment.
The metabolic rate of cartilage explants was measured using the Alamar Blue assay (ThermoFisher). Cartilage explants were incubated for 3 hours in a 1× solution of Alamar Blue dissolved in culture medium. At the end of the incubation period, the absorbance of the medium at 570 nm and 600 nm was measured using a microplate reader (Synergy H1 Hybrid Multi-Mode Microplate Reader, BioTek). These readings were used to calculate the percentage reduction of Alamar Blue, which is directly proportional to the explant metabolic rate. These values were first normalized by individual explant weights. Following this, the weight-normalized readings for the treatment groups were normalized by the weight-normalized mean value for the untreated controls. To measure the chondrocyte biosynthesis rate of sulfated glycosaminoglycans (sGAGs), cartilage explants were cultured in the presence of 10 μCi/mL 35S-sulfate radiolabel during the final two days of each experiment. […]

[2] = tested on: human ankle cartilage explants treated with IL-1β; assay: Cumulative sGAG loss and final sGAG content (DMMB) in IL-1β challenge, human ankle cartilage; assay type: cell-based; settings: 100 pg/ml IL-1β; for cumulative sGAG loss compared to the untreated control: 10-day time point
Method: Preliminary dose response experiments were performed to test the effects of human IL-1β (PeproTech, Rocky Hill, NJ) on human ankle cartilage. Ankle cartilage explants from two different donors (equilibrated in culture medium post-harvest) were cultured in serum-free low glucose medium (same composition as equilibration medium) and treated with continuous IL-1β doses ranging from 10 pg/ml to 1 ng/ml for 8 days. The experiments also included groups of explants that were treated with 300 ng/ml free IGF-1 at each dose level of IL-1β. Based on the results of these experiments, 100 pg/ml IL-1β was chosen as the dose used for the fusion protein dose response experiments. In these experiments, ankle and knee cartilage explants (equilibrated in culture medium post-harvest) were treated continuously with IL-1β and received single doses of fusion proteins (ranging from 39.2 nM to 2 μM) at the start of the experiments. Media changes with IL-1β but without fusion proteins were performed once every 2 to 3 days. An untreated control group, a control with continuous IL-1β alone, and a control with IL-1β combined with continuous free IGF-1 (300 ng/ml or 39.2 nM) were included. Experiments were terminated at 7-day and 10-day timepoints, and the sGAG biosynthesis rate, metabolic rate, sGAG loss to culture medium and sGAG content of the explants were measured.
The metabolic rate of cartilage explants was measured using the Alamar Blue assay (ThermoFisher). Cartilage explants were incubated for 3 hours in a 1× solution of Alamar Blue dissolved in culture medium. At the end of the incubation period, the absorbance of the medium at 570 nm and 600 nm was measured using a microplate reader (Synergy H1 Hybrid Multi-Mode Microplate Reader, BioTek). These readings were used to calculate the percentage reduction of Alamar Blue, which is directly proportional to the explant metabolic rate. These values were first normalized by individual explant weights. Following this, the weight-normalized readings for the treatment groups were normalized by the weight-normalized mean value for the untreated controls. To measure the chondrocyte biosynthesis rate of sulfated glycosaminoglycans (sGAGs), cartilage explants were cultured in the presence of 10 μCi/mL 35S-sulfate radiolabel during the final two days of each experiment. […] To calculate the cumulative loss of GAGs from the explants, the amount of sGAG lost to the medium and that left behind in the explants at the end of the experiment were measured using the dimethylene blue (DMMB) dye binding assay (Farndale et al., Biochim Biophys Acta. 883(2):173-177 (1986)).

Substance | aggrecan biosynthesis rate compared to the untreated control ([1]; Experiment 3A, ankle, continuous 40 nM free IGF-1, 3-day time point) | aggrecan biosynthesis rate compared to the untreated control ([1]; Experiment 3A, ankle, continuous 40 nM free IGF-1, 7-day time point) | aggrecan biosynthesis rate compared to the untreated control ([1]; Experiment 4, ankle, continuous 40 nM free IGF-1, days 5-7) | sulfate incorporation rate compared to the untreated control ([1]; continuous 39.2 nM free IGF-1, FIG. 19A) | cumulative sGAG loss to the medium compared to the untreated control ([2]; 7-day time point (FIG. 15C)) | aggrecan biosynthesis rate compared to the untreated control ([1]; Experiment 3A, ankle, all three single doses (500 nM, 1 μM, 2 μM), 7-day time point) | biosynthesis rate of explants compared to the untreated control [1] | sGAG biosynthesis rate [1] | elevated biosynthesis rate after single dose, up to Day 7 [1] | elevated biosynthesis rate after single dose, up to Day 15 [1] | cumulative sGAG loss compared to the untreated control ([2]; single 2 μM dose) | aggrecan biosynthesis rate compared to the untreated control ([1]; Experiment 3A, ankle, donor, single 500 nM dose, 3-day time point) | aggrecan biosynthesis rate compared to the untreated control ([1]; Experiment 3A, ankle, single 500 nM dose, 7-day time point) | aggrecan biosynthesis rate compared to the untreated control ([1]; Experiment 3A, ankle, single 1 μM dose, 7-day time point) | aggrecan biosynthesis rate compared to the untreated control ([1]; Experiment 3A, ankle, single 2 μM dose, 3-day time point) | aggrecan biosynthesis rate compared to the untreated control ([1]; Experiment 4, ankle, donor, single 500 nM dose, days 5-7) | aggrecan biosynthesis rate compared to the untreated control ([1]; Experiment 4, ankle, donor, single 1 μM dose, days 5-7) | cumulative sGAG loss compared to the untreated control ([2]; single 500 nM dose)
IGF-1: free recombinant human IGF-1 (PeproTech), pro-anabolic growth factor used as the positive control | statistically significantly higher | statistically significantly higher | statistically significantly higher | significantly increased | higher cumulative sGAG loss |  |  |  |  |  |  |  |  |  |  |  |  | 
(+9GFP)-(EAAAK)3-(IGF-1): fusion protein of +9 GFP and human IGF-1 with rigid (EAAAK)3 linker, SEQ ID NO: 8 |  |  |  |  |  | statistically significantly higher | did not increase | significant increase | sustained up to Day 7 | could not maintain | higher cumulative sGAG loss |  |  |  |  |  |  | 
(+9GFP)-(GGGGS)4-(IGF-1): fusion protein of +9 GFP and human IGF-1 with flexible (GGGGS)4 linker, SEQ ID NO: 7 |  |  |  |  |  |  | did not increase | significant increase | sustained up to Day 7 | could not maintain |  | statistically significantly higher | statistically significantly higher | statistically significantly higher | statistically significantly higher | statistically significantly higher | statistically significantly higher | higher cumulative sGAG loss
